According to article PMC11040352, “CD38‐Specific Gallium‐68 Labeled Peptide Radiotracer Enables Pharmacodynamic Monitoring in Multiple Myeloma with PET” (Advanced Science, 2024):
Like-named read-outs stand apart in the source and are kept apart here.

Test: Ex vivo biodistribution in mice with MM1S tumor xenografts
Settings: both sexes, NSG, mouse; for tissue uptake at 5 min: 5 min p.i.; for tissue uptake at 0.5 h: 30 min p.i.; for tissue uptake at 1 h: 60 min p.i.; for tissue uptake at 1.5 h: 90 min p.i.; for tissue uptake at 2 h: 120 min p.i.
Description: Animal studies were performed under Johns Hopkins University Animal Care and Use Committee (ACUC‐approved protocol (Principal investigator: Sridhar Nimmagadda, Ph.D. and Protocol number M021M175). Male and female NSG mice (5‐6 weeks old) were used to establish xenografts by administering 3 million cells (50% Corning Matrigel) subcutaneously to form various tumor models within 3–4 weeks. Imaging or biodistribution studies (n = 3–5) were conducted on mice with tumor volumes of 100–200 mm^3. Disseminated tumor models were developed by injecting 4–5 million cells in saline intravenously for MOLP8 and MM1S‐Luc models (n = 4–5). Luciferase expressing MM1S cell line (MM1S‐Luc) was used to monitor cancer cell dissemination in the body. Tumor establishment was confirmed by injecting D‐Luciferin intraperitoneally (150 mg kg^−1) and imaged mice after 10 min in IVIS bioluminescence imaging system. Bone marrow tumors were ready for imaging after 25–30 d of implantation.
Mice with 100–200 mm^3 tumor volume were used for ex vivo biodistribution studies. For radiotracer pharmacokinetics studies, mice with MOLP8 tumor xenografts received ≈80 µCi (2.96 MBq) [^68Ga]Ga‐AJ206 and were sacrificed at pre‐determined time points (5, 30, 60 and 120 min). Similarly, for dosimetry study, mice with MM1S tumor xenografts received ≈80 µCi (2.96 MBq) of [^68Ga]Ga‐AJ206 and were sacrificed at pre‐determined time points (5, 30, 60, 90 and 120 min). All other mice were injected with ≈50µCi (1.85 MBq) [^68Ga]Ga‐AJ206 and were sacrificed at 60 min. The selected tissues were collected, weighed, counted, and their %ID g^−1 values calculated for biodistribution analysis. The tissues included blood, muscle, tumor, thymus, heart, lung, liver, pancreas, stomach, small intestine, large intestine, spleen, adrenals, kidney, bladder, femur, and brain.

[1] = adrenals, 80 µCi, MM1S xenograft mice, read-out: uptake in adrenals
[2] = bladder, 80 µCi, MM1S xenograft mice, read-out: uptake in bladder
[3] = blood, 80 µCi, total radioactivity, MM1S xenograft mice, read-out: uptake in blood
[4] = brain, 80 µCi, MM1S xenograft mice, read-out: uptake in brain
[5] = femur, 80 µCi, MM1S xenograft mice, read-out: uptake in femur
[6] = heart, 80 µCi, total radioactivity, MM1S xenograft mice, read-out: uptake in heart
[7] = kidney, 80 µCi, MM1S xenograft mice, read-out: uptake in kidney
[8] = large intestine (with contents), 80 µCi, MM1S xenograft mice, read-out: uptake in large intestine (with contents)
[9] = liver, 80 µCi, total radioactivity, MM1S xenograft mice, read-out: uptake in liver
[10] = lung, 80 µCi, total radioactivity, MM1S xenograft mice, read-out: uptake in lung
[11] = muscle, 80 µCi, MM1S xenograft mice, read-out: uptake in muscle

Q: Which tissue uptake at 5 min [1] does the source give for `CC[C@H](C)[C@@H]1NC(=O)[C@@H]2CCCN2C(=O)[C@H](Cc2ccccc2)NC(=O)[C@H](CC(=O)O)NC(=O)[C@H](C)NC(=O)[C@@H]2CSCc3cc(cc(c3)CSC[C@H](NC(=O)[C@H](C)NC(=O)CCOCCOCCOCCNC(=O)CN3CCN(CC(=O)O)CCN(CC(=O)O)CC3)C(=O)N[C@@H](C(C)C)C(=O)N3CCC[C@H]3C(=O)N2)CSC[C@@H](C(N)=O)NC(=O)[C@H](Cc2ccc(O)cc2)NC(=O)[C@H](Cc2c[nH]c3ccccc23)NC1=O` [[^68Ga]Ga‐AJ206, metal not drawn] here?
A: The tissue uptake at 5 min was 5.07 ± 0.11 %ID/g.

Q: What about the tissue uptake at 0.5 h [1] of the same compound?
A: Its tissue uptake at 0.5 h is 2.08 ± 0.38 %ID/g.

Q: What about the tissue uptake at 1 h [1] of the same compound?
A: The tissue uptake at 1 h was 0.59 ± 0.06 %ID/g.

Q: And the tissue uptake at 1.5 h [1]?
A: Its tissue uptake at 1.5 h is 0.44 ± 0.1 %ID/g.

Q: What about the tissue uptake at 2 h [1] of the same compound?
A: The tissue uptake at 2 h was 0.57 ± 0.14 %ID/g.

Q: What about the tissue uptake at 5 min [2] of the same compound?
A: Its tissue uptake at 5 min is 9.35 ± 1.87 %ID/g.

Q: And the tissue uptake at 0.5 h [2]?
A: The tissue uptake at 0.5 h was 4.51 ± 0.93 %ID/g.

Q: And the tissue uptake at 1 h [2]?
A: Its tissue uptake at 1 h is 0.75 ± 0.08 %ID/g.

Q: And the tissue uptake at 1.5 h [2]?
A: The tissue uptake at 1.5 h was 1.23 ± 0.1 %ID/g.

Q: What about the tissue uptake at 2 h [2] of the same compound?
A: The tissue uptake at 2 h was 0.9 ± 0.37 %ID/g.

Q: And the tissue uptake at 1 h (blood, 2 mg/kg, MM1S xenograft mice with blocking dose (2 mg kg^−1 AJ206), read-out: uptake in blood)?
A: Its tissue uptake at 1 h is 2.17 ± 1.17 %ID/g.

Q: And the tissue uptake at 2 h (blood, 80 µCi, MM1S xenograft mice, read-out: uptake in blood)?
A: The tissue uptake at 2 h was 0.33 ± 0.07 %ID/g.

Q: What about the tissue uptake at 5 min [3] of the same compound?
A: The tissue uptake at 5 min was 20.7 ± 1.68 %ID/g.

Q: And the tissue uptake at 0.5 h [3]?
A: Its tissue uptake at 0.5 h is 2.95 ± 0.37 %ID/g.

Q: And the tissue uptake at 1 h [3]?
A: The tissue uptake at 1 h was 0.75 ± 0.29 %ID/g.

Q: And the tissue uptake at 1.5 h [3]?
A: The tissue uptake at 1.5 h was 0.75 ± 0.24 %ID/g.

Q: What about the tissue uptake at 5 min [4] of the same compound?
A: Its tissue uptake at 5 min is 0.44 ± 0.07 %ID/g.

Q: And the tissue uptake at 0.5 h [4]?
A: The tissue uptake at 0.5 h was 0.21 ± 0.12 %ID/g.

Q: And the tissue uptake at 1 h [4]?
A: Its tissue uptake at 1 h is 0.06 ± 0.03 %ID/g.

Q: And the tissue uptake at 1.5 h [4]?
A: The tissue uptake at 1.5 h was 0.03 ± 0.01 %ID/g.

Q: What about the tissue uptake at 2 h [4] of the same compound?
A: The tissue uptake at 2 h was 0.02 ± 0.01 %ID/g.

Q: What about the tissue uptake at 1 h (femur, 2 mg/kg, MM1S xenograft mice with blocking dose (2 mg kg^−1 AJ206), read-out: uptake in femur) of the same compound?
A: The tissue uptake at 1 h was 0.25 ± 0.09 %ID/g.

Q: And the tissue uptake at 5 min [5]?
A: Its tissue uptake at 5 min is 3.37 ± 0.31 %ID/g.

Q: What about the tissue uptake at 0.5 h [5] of the same compound?
A: The tissue uptake at 0.5 h was 0.86 ± 0.06 %ID/g.

Q: What about the tissue uptake at 1 h [5] of the same compound?
A: The tissue uptake at 1 h was 0.33 ± 0.12 %ID/g.

Q: What about the tissue uptake at 1.5 h [5] of the same compound?
A: The tissue uptake at 1.5 h was 0.28 ± 0.05 %ID/g.

Q: What about the tissue uptake at 2 h [5] of the same compound?
A: Its tissue uptake at 2 h is 0.09 ± 0.02 %ID/g.

Q: What about the tissue uptake at 1 h (heart, 2 mg/kg, MM1S xenograft mice with blocking dose (2 mg kg^−1 AJ206), read-out: uptake in heart) of the same compound?
A: Its tissue uptake at 1 h is 0.33 ± 0.03 %ID/g.

Q: What about the tissue uptake at 5 min [6] of the same compound?
A: Its tissue uptake at 5 min is 6.38 ± 0.42 %ID/g.

Q: What about the tissue uptake at 0.5 h [6] of the same compound?
A: The tissue uptake at 0.5 h was 1 ± 0.15 %ID/g.

Q: And the tissue uptake at 1 h [6]?
A: Its tissue uptake at 1 h is 0.29 ± 0.03 %ID/g.

Q: What about the tissue uptake at 1.5 h [6] of the same compound?
A: Its tissue uptake at 1.5 h is 0.35 ± 0.08 %ID/g.

Q: What about the tissue uptake at 2 h [6] of the same compound?
A: The tissue uptake at 2 h was 0.16 ± 0.01 %ID/g.

Q: And the tissue uptake at 1 h (kidney, 2 mg/kg, MM1S xenograft mice with blocking dose (2 mg kg^−1 AJ206), read-out: uptake in kidney)?
A: Its tissue uptake at 1 h is 15.9 ± 1.12 %ID/g.

Q: What about the tissue uptake at 5 min [7] of the same compound?
A: The tissue uptake at 5 min was 31.5 ± 4.15 %ID/g.

Q: And the tissue uptake at 0.5 h [7]?
A: Its tissue uptake at 0.5 h is 21.6 ± 2.02 %ID/g.

Q: What about the tissue uptake at 1 h [7] of the same compound?
A: Its tissue uptake at 1 h is 14.1 ± 0.57 %ID/g.

Q: And the tissue uptake at 1.5 h [7]?
A: The tissue uptake at 1.5 h was 13.2 ± 1.59 %ID/g.

Q: And the tissue uptake at 2 h [7]?
A: Its tissue uptake at 2 h is 9.39 ± 1.5 %ID/g.

Q: And the tissue uptake at 5 min [8]?
A: The tissue uptake at 5 min was 3.11 ± 0.38 %ID/g.

Q: What about the tissue uptake at 0.5 h [8] of the same compound?
A: Its tissue uptake at 0.5 h is 0.75 ± 0.04 %ID/g.

Q: What about the tissue uptake at 1 h [8] of the same compound?
A: Its tissue uptake at 1 h is 0.29 ± 0.03 %ID/g.

Q: What about the tissue uptake at 1.5 h [8] of the same compound?
A: The tissue uptake at 1.5 h was 0.27 ± 0.05 %ID/g.

Q: And the tissue uptake at 2 h [8]?
A: Its tissue uptake at 2 h is 0.27 ± 0.19 %ID/g.

Q: What about the tissue uptake at 1 h (liver, 2 mg/kg, MM1S xenograft mice with blocking dose (2 mg kg^−1 AJ206), read-out: uptake in liver) of the same compound?
A: Its tissue uptake at 1 h is 1.45 ± 0.26 %ID/g.

Q: What about the tissue uptake at 5 min [9] of the same compound?
A: Its tissue uptake at 5 min is 30.3 ± 3.51 %ID/g.

Q: And the tissue uptake at 0.5 h [9]?
A: The tissue uptake at 0.5 h was 3.64 ± 0.31 %ID/g.

Q: What about the tissue uptake at 1 h [9] of the same compound?
A: Its tissue uptake at 1 h is 1.38 ± 0.04 %ID/g.

Q: And the tissue uptake at 1.5 h [9]?
A: Its tissue uptake at 1.5 h is 1.16 ± 0.08 %ID/g.

Q: What about the tissue uptake at 2 h [9] of the same compound?
A: The tissue uptake at 2 h was 0.73 ± 0.1 %ID/g.

Q: And the tissue uptake at 1 h (lung, 2 mg/kg, MM1S xenograft mice with blocking dose (2 mg kg^−1 AJ206), read-out: uptake in lung)?
A: Its tissue uptake at 1 h is 0.94 ± 0.09 %ID/g.

Q: And the tissue uptake at 5 min [10]?
A: Its tissue uptake at 5 min is 10.2 ± 4.52 %ID/g.

Q: And the tissue uptake at 0.5 h [10]?
A: Its tissue uptake at 0.5 h is 3.43 ± 0.5 %ID/g.

Q: And the tissue uptake at 1 h [10]?
A: The tissue uptake at 1 h was 0.67 ± 0.07 %ID/g.

Q: What about the tissue uptake at 1.5 h [10] of the same compound?
A: Its tissue uptake at 1.5 h is 0.95 ± 0.18 %ID/g.

Q: What about the tissue uptake at 2 h [10] of the same compound?
A: The tissue uptake at 2 h was 0.4 ± 0.04 %ID/g.

Q: What about the tissue uptake at 1 h (muscle, 2 mg/kg, MM1S xenograft mice with blocking dose (2 mg kg^−1 AJ206), read-out: uptake in muscle) of the same compound?
A: The tissue uptake at 1 h was 0.21 ± 0.07 %ID/g.

Q: And the tissue uptake at 5 min [11]?
A: The tissue uptake at 5 min was 1.96 ± 0.28 %ID/g.

Q: What about the tissue uptake at 0.5 h [11] of the same compound?
A: Its tissue uptake at 0.5 h is 0.55 ± 0.09 %ID/g.
